Measured values taken from patent US20180244653A1, “SELECTIVE ALPHA-7 NICOTINIC RECEPTOR AGONISTS AND METHODS FOR MAKING AND USING THEM” (THE REGENTS OF THE UNIVERSITY OF CALIFORNIA, priority 2015, published 2018).
Values joined by “and” are separate entries in the source; they are usually repeats but may differ in a detail not shown here. Equal entries are not always repeated. “Also recorded” adds a separate entry of the source. Where two headings read alike, the source gives them in different places.

What was measured:
[1] = target: α7/5HT3A chimera receptor (hα7/m5HT3A), used for α7-nAChRs (UniProt P23979+P36544, M226I/T225I); assay: Intact cell competitive radioligand binding assay ([3H]-(±)-epibatidine, SPA), LGIC-CNiFERs; conditions: read-out: Kd ± SD, α7-nAChRs; >10 = did not pass initial screen at 10 μM
α7-nAChRs = target: T1, α7-nAChRs (Homo sapiens, UniProt P36544); assay: FRET functional assay (agonist/antagonist) using LGIC-CNiFERs; assay type: cell-based; conditions: for EC50: in presence of 10 μM PNU-120596, * partial agonist, read-out: Agonist EC50 ± SD, α7; for Functional properties at α7-nAChRs (agonist / antagonist): functional screening and characterization
T1 construct: expressed in transfected cells; host or cells: HEKtsA201 cells co-expressing TN-XXL
Method: (§1) Initially, the agonist properties of tested compounds were assessed directly. […] All α7-nAChR functional assays were performed in the presence of PNU-120596, an α7-nAChR positive allosteric modulator (PAM), to increase signal and delay the sensitization state of α7-nAChRs enabling the measurement of more prolonged FRET signals.^29 Compounds having agonist responses of >0.20 were determined for EC50, and compounds having inhibition fraction of >0.50 were determined for KA.^25 EC50>13.3 μM and KA>10 μM which are a screening concentration for agonist and antagonist, respectively were reported compounds not taken for further in the screening of receptor occupation and responses.
(§2) Agonist and antagonist elicited responses were characterized using the above CNiFER cell expressing Cys-loop ligand-gated ion channel (LGIC) receptors. […] A 96-well black, clear-bottom microplate (Greiner bio-one, Germany) was coated with poly-D-lysine (Sigma-Aldrich, St. Louis, Mo.) 50 μL/well for 30 min and washed out with Phosphate-Buffered Saline (PBS) (Corning, Cellgro, Manassas, Va.) before plating the cells. After plating and incubation at 37° C. for 1 day, the media was replaced with 100 μL of artificial cerebrospinal fluid (aCSF: 121 mM NaCl, 5 mM KCl, 26 mM NaHCO3, 1.2 mM NaH2PO4H2O, 10 mM glucose, 2.4 mM CaCl2, 1.3 mM MgSO4, 5 mM HEPES, pH 7.4) for 4032 and 5HT3A receptors, whereas 10 μM PNU-120596 (Tocris Bioscience, Bristol, UK) in aCSF with 30 min incubation at 37° C. was used for α7-nAChR. The tested compounds were prepared in aCSF for all receptors except α7-nAChR, where 10 μM PNU-120596, a positive allosteric modulator (PAM) was used. The prepared compounds were added in a separate 96-well polypropylene plate (Costar, Corning, N.Y.). Experiments were conducted at 37° C. using 436-nm excitation. Emitted light was collected at 485 nm and 528 nm. Basal fluorescence was recorded for 30 s, followed by addition of 50 μL of ligand (first addition). Measurements were made at 3.84 s intervals for 2 min to measure the agonistic effect. […] Agonist and antagonist properties were sequentially screened at the final concentration of 13.3 and 10 μM, respectively, which differed from the screening concentration from intact cell binding assay (10 μM).

5HT3A receptors = target: T2, 5HT3A receptors (Mus musculus, UniProt P23979); assay: as above; assay type: cell-based; conditions: for Functional properties at 5HT3A receptors (agonist / antagonist, type): functional screening and characterization
T2 construct: expressed in transfected cells; host or cells: HEK293 cells co-expressing TN-XXL
T2 sequence (P23979 24-489): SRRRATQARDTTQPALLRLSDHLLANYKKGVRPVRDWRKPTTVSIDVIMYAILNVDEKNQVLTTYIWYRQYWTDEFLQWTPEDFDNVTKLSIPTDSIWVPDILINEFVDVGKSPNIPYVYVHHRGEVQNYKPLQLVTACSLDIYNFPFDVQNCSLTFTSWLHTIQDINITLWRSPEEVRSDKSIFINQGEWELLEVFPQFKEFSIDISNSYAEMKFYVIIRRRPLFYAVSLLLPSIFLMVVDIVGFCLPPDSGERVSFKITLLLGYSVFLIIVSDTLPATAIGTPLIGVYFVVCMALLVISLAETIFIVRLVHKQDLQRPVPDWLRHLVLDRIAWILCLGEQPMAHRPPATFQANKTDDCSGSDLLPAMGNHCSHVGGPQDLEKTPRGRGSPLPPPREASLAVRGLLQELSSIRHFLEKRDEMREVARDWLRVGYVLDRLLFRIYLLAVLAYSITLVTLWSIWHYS
Method: as §1, §2

α4β2-nAChRs = target: T3, α4β2-nAChRs (Homo sapiens, UniProt P17787+P43681); assay: as above; assay type: cell-based; conditions: for Functional properties at α4β2-nAChRs (agonist / antagonist, type): functional screening and characterization
T3 construct: expressed in transfected cells; host or cells: HEKtsA201 cells co-expressing TN-XXL
Method: as §1, §2

[2] = >10 = did not pass initial screen
[3] = read-out: Antagonist KA ± SD, α4β2
[4] = competitive antagonist (^C), >10 = did not pass initial screen, vs 5-HT, read-out: Antagonist KA ± SD, 5HT3A
[5] = read-out: Agonist EC50 ± SD, 5HT3A
[6] = competitive antagonist (^C), >10 = did not pass initial screen, vs (±)-epibatidine, read-out: Antagonist KA ± SD, α4β2
[7] = * partial agonist, >10 = did not pass initial screen, read-out: Agonist EC50 ± SD, 5HT3A
[8] = competitive antagonist (^C), >10 = did not pass initial screen, vs (±)-epibatidine, read-out: Antagonist KA ± SD, α7
[9] = non-competitive antagonist (^NC), read-out: Antagonist KA ± SD, α7, non-competitive
[10] = Antagonist KA ± SD, α4β2, competitive antagonist (^C), >10 = did not pass initial screen, vs (±)-epibatidine
[11] = non-competitive antagonist (^NC)

SMILES	EC50 (α7-nAChRs; [2])	Functional properties at 5HT3A receptors (agonist / antagonist, type) (5HT3A receptors)	Kd (α4β2-nAChRs; [3]) [µM]	Kd (5HT3A receptors; [4]) [µM]	EC50 (5HT3A receptors; [5]) [µM]	also measured
c1cc2cc(-c3cn(CCCCN4CCCCC4)nn3)ccc2[nH]1 [IND3, 5-(1-(4-(Piperidin-1-yl)butyl)-1H-1,2,3-triazol-4-yl)-1H-indole]	0.91 µM					Kd [1]: 13.8 µM
c1cc2cc(-c3cn(CCCCN4CCOCC4)nn3)ccc2[nH]1 [IND6, 5-(1-(4-(Morpholin-4-yl)butyl)-1H-1,2,3-triazol-4-yl)-1H-indole]	12.2 µM					
c1cc2cc(-c3cn(CCN4CCNCC4)nn3)ccc2[nH]1 [IND9, 5-(1-(2-(Piperazin-1-yl)ethyl)-1H-1,2,3-triazol-4-yl)-1H-indole]		mix-competitive antagonist				
c1cc2cc(-c3cn(C4CCCNC4)nn3)ccc2[nH]1 (stereo not shown) [IND10, 5-(1-(Piperidin-3-yl)-1H-1,2,3-triazol-4-yl)-1H-indole]	0.66 µM	mix-competitive antagonist				
c1cc2cc(-c3cn(CCN4CCCCCC4)nn3)ccc2[nH]1 [IND14, 5-(1-(2-(Azepan-1-yl)ethyl)-1H-1,2,3-triazol-4-yl)-1H-indole]	0.78 µM	competitive antagonism				
c1cc2c(cc1-c1cn(CCN3CCCCC3)nn1)OCO2 [PPRD1, 1-(2-(4-(Benzo-1,3-dioxol-5-yl)-1,2,3-triazol-1-yl)ethyl)piperidine]	7.4 ± 0.7 µM		> 10	> 10	> 10	
Nc1ccc(-c2cn(CCN3CCCCC3)nn2)cc1 [PPRD2, 1-(2-(4-Aminophenyl-1,2,3-triazol-1-yl)ethyl)piperidine]	0.38 µM			>10		Kd (α4β2-nAChRs; [6]): >10 µM; EC50 (5HT3A receptors; [7]): > 10 µM
COc1ccc(-c2cn(CCN3CCCCC3)nn2)cc1 [PPRD3, 1-(2-(4-(4-Methoxyphenyl)-1,2,3-triazol-1-yl)ethyl)piperidine]	15 µM		> 10	> 10	> 10	Functional properties at α7-nAChRs (agonist / antagonist) (α7-nAChRs): partial agonists
Cc1ccc(-c2cn(CCN3CCCCC3)nn2)cc1 [PPRD4, 1-(2-(4-Tolyl-1,2,3-triazol-1-yl)ethyl)piperidine]	3.1 ± 0.8 µM		> 10	> 10	> 10	
COc1ccc2cc(-c3cn(CCN4CCCCC4)nn3)ccc2c1 [PPRD6, 1-(2-(4-(6-Methoxynaphthalen-2-yl)-1H-1,2,3-triazol-1-yl)ethyl)piperidine]	> 10 µM		> 10	> 10	> 10	
Nc1ccc(-c2cn(CCN3CCCCC3)nn2)cc1 [PPRD8, 1-(2-(4-Aminophenyl-1,2,3-triazol-1-yl)ethyl)piperidine]	2.9 µM	competitive antagonist		39		Kd (α4β2-nAChRs; [6]): >10 µM
Nc1ncnc2c1ncn2Cc1cn(CCN2CCCCC2)nn1 [PPRD10, 9-((1-(2-(Piperidin-1-yl)ethyl)-1,2,3-triazol-4-yl)methyl)-purin-6-amine]	> 10 µM		> 10	> 10	> 10	Kd (α7-nAChRs; [8]): 11.6 µM; Kd (α7-nAChRs; [9]): 18.9 µM
COC(=O)c1ccc2[nH]cc(-c3cn(CCN4CCCCC4)nn3)c2c1 [PPRD11, Methyl 3-(1-(2-(piperidin-1-yl)ethyl)-1H-1,2,3-triazol-4-yl)-1H-indole-5-carboxylate]			6.5 ± 1.7	> 10	> 10	Functional properties at α4β2-nAChRs (agonist / antagonist, type) (α4β2-nAChRs): α4β2-nAChR antagonists; also recorded: competitive antagonist; Kd (α7-nAChRs; [8]): 6.6 ± 2.2 µM; Functional properties at α7-nAChRs (agonist / antagonist) (α7-nAChRs): weak and non-selective α7-nAChR antagonists; Kd (α7-nAChRs; [9]): 6.6 ± 1.7 µM
Clc1ccc(-c2cn(CCN3CCCCC3)nn2)cc1 [PPRD13, 1-(2-(4-(4-Chlorophenyl)-1,2,3-triazol-1-yl)ethyl)piperidine]	17.6 ± 4.6 µM		> 10	> 10	> 10	Functional properties at α7-nAChRs (agonist / antagonist) (α7-nAChRs): partial agonists
COc1ccc(-c2cn(C3CN4CCC3CC4)nn2)cc1 (stereo not shown) [QND3, 3-(4-(4-Methoxyphenyl)-1,2,3-triazol-1-yl)quinuclidine]	0.1 µM	5HT3A receptor agonist properties				Kd (α4β2-nAChRs; [10]): > 10 µM; EC50 (5HT3A receptors): 5.7 ± 1.7 µM
Cc1ccc(-c2cn(C3CN4CCC3CC4)nn2)cc1 (stereo not shown) [QND4, 3-(4-Tolyl-1,2,3-triazol-1-yl)quinuclidine]	0.2 µM	antagonists and 5HT3A antagonist properties and mix-competitive antagonist				Kd (α4β2-nAChRs; [6]): >10 µM; Antagonist KA ± SD, 5HT3A (5HT3A receptors; competitive antagonist (^C), >10 = did not pass initial screen, vs 5-HT): 0.50 ± 0.27^C, μM; Antagonist KA ± SD, 5HT3A, non-competitive (5HT3A receptors; [11]): 0.53 ± 0.18^NC μM
O=Cc1c[nH]c2ccc(-c3cn(C4CN5CCC4CC5)nn3)cc12 (stereo not shown) [QND5, 5-(1-(Quinuclidin-3-yl)-1,2,3-triazol-4-yl)-indole-3-carbaldehyde]	0.27 µM				0.16 ± 0.04	Kd (α4β2-nAChRs; [10]): > 10 µM
c1ccc(-c2ccc(-c3cn(C4CN5CCC4CC5)nn3)cc2)cc1 (stereo not shown) [QND7, 3-(4-(Biphenyl-4-yl)-1,2,3-triazol-1-yl)quinuclidine]				> 10	> 10	Kd (α4β2-nAChRs; [10]): > 10 µM; Kd (α7-nAChRs; Antagonist KA ± SD, α7, competitive antagonist (^C), >10 = did not pass initial screen, vs (±)-epibatidine): 6.7 ± 2.5 µM; Functional properties at α7-nAChRs (agonist / antagonist) (α7-nAChRs): antagonistic properties; also recorded: weak α7-nAChR antagonist; Kd (α7-nAChRs; [9]): 26 ± 10 µM
Nc1ncnc2c1ncn2Cc1cn(C2CN3CCC2CC3)nn1 (stereo not shown) [QND10, 9-((1-(Quinuclidin-3-yl)-1,2,3-triazol-4-yl)methyl)-purin-6-amine]	29.5 µM and 30 µM			> 10	> 10	Kd (α4β2-nAChRs; [10]): > 10 µM
COC(=O)c1ccc2[nH]cc(-c3cn(C4CN5CCC4CC5)nn3)c2c1 (stereo not shown) [QND11, Methyl 3-(1-(quinuclidin-3-yl)-1,2,3-triazol-4-yl)-indole-5-carboxylate]	1.61 ± 0.36 µM	antagonists; also recorded: non-competitive antagonist				Kd (α4β2-nAChRs; [10]): 9.3 ± 4.3 µM; Functional properties at α4β2-nAChRs (agonist / antagonist, type) (α4β2-nAChRs): competitive antagonism; Kd (α4β2-nAChRs; read-out: Antagonist KA ± SD, α4β2, non-competitive): 37 ± 22 µM; Kd (5HT3A receptors; non-competitive antagonist (^NC), read-out: Antagonist KA ± SD, 5HT3A, non-competitive): 0.08 ± 0.01 µM
Clc1ccc(-c2cn(C3CN4CCC3CC4)nn2)cc1 (stereo not shown) [QND13, 3-(4-chlorophenyl-1,2,3-triazol-1-yl)quinuclidine]	1.01 µM	5HT3A receptor agonist properties				Antagonist KA ± SD, α4β2 (α4β2-nAChRs; competitive antagonist (^C), >10 = did not pass initial screen, vs (±)-epibatidine): 11.2 ± 2.6^C, μM; Functional properties at α4β2-nAChRs (agonist / antagonist, type) (α4β2-nAChRs): mix-competitive antagonist; Antagonist KA ± SD, α4β2, non-competitive (α4β2-nAChRs; [11]): 23 ± 6^NC μM; EC50 (5HT3A receptors; [7]): 4.9 ± 1.2 µM
